US20260176289A1, “SMALL MOLECULE INHIBITORS OF KRAS PROTEINS” (Merck Sharp & Dohme LLC, priority 2022, published 2026)

Key:
Type in all cases: biochemical
[1] = target: T1, KRAS G12C (amino acids 1-169) (Homo sapiens, UniProt P01116, G12C); experiment: SOS-catalyzed nucleotide exchange assay (Procedure B, BODIPY FL GDP displacement), KRAS G12C; details: read-out: KRAS G12C GNE IC50
T1 construct: made in house; host or cells: E. coli
Description: (§1) Procedure for SOS-Catalyzed Nucleotide Exchange Assay for KRAS-G12C/D/V/WT (Procedure B)
(§2) Recombinant KRAS G12C (amino acids 1-169, SEQ ID NO:9), KRAS G12D (amino acids 1-169, SEQ ID NO: 10), KRAS G12V (amino acids 1-169, SEQ ID NO: 11), KRAS WT (amino acids 1-169, SEQ ID NO:12) and SOS1 (amino acids 564-1049, SEQ ID NO: 13) proteins were expressed in E. coli and purified by affinity chromatography. To prepare each BODIPY™ FL GDP-bound KRAS protein, 50 μM KRAS proteins were incubated with 0.5 mM BODIPY™ FL GDP (Invitrogen, G22360) in a loading buffer (20 mM Tris-HCl pH 7.5, 50 mM NaCl, 1 mM DTT and 2.5 mM EDTA) for 1 hour on ice. After the incubation, MgCl2 was added to a final concentration of 10 mM, followed by an incubation at room temperature for 30 minutes. The mixtures were allowed to pass through a NAP-5 column to remove free nucleotides and purified BODIPY™ FL GDP-bound KRAS G12C, G12D, G12V and WT proteins were used for compound evaluation.
(§3) The inhibitory activity of compounds on recombinant KRAS is measured by the displacement of the bound BODIPY™ GDP. Specifically, 2.5 nM of each BODIPY™ FL GDP-bound KRAS complex was incubated with various concentrations of compound in a reaction buffer (20 mM Tris-HCl pH 7.5, 100 mM NaCl, 1 mM MgCl2, 2 mM DTT, 0.1% Tween 20) at 25° C. for 1 hour. After the incubation, recombinant SOS1 and GMPPNP (Jena Bioscience GmbH, NU-401) were added and incubated at room temperature for 30 minutes to proceed SOS1-dependent GDP-GTP exchange reaction on KRAS. Displacement of BODIPY™ FL GDP by Guanosine-5′-[(β,γ)-imido]triphosphate, Tetralithium salt (GMPPNP) was measured by calculating the ratio of fluorescence intensities of BODIPY™ FL before and after the exchange reaction. Percent Inhibition was calculated by setting the fluorescence ratio from the reaction without test compound (DMSO control) and the fluorescence ratio from the reaction without SOS1 and GMPPNP as 0% and 100% inhibition, respectively. Dose response curves were analyzed using a 4-parameter logistic model to calculate IC50 values.

[2] = target: T2, KRAS WT (amino acids 1-169) (Homo sapiens, UniProt P01116); experiment: SOS-catalyzed nucleotide exchange assay (Procedure B, BODIPY FL GDP displacement), KRAS WT; details: read-out: KRAS WT GNE IC50
T2 construct: made in house; host or cells: E. coli
T2 sequence (P01116 with tags, fused parts or gaps isoform P01116-2): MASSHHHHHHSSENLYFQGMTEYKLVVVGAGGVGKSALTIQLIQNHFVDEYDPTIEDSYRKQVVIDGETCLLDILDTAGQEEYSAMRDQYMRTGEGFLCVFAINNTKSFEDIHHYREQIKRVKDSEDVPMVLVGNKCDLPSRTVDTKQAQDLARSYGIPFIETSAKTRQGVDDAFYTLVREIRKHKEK
Description: as §1, §2, §3

[3] = target: T3, KRAS G12V (amino acids 1-169) (Homo sapiens, UniProt P01116, G12V); experiment: SOS-catalyzed nucleotide exchange assay (Procedure B, BODIPY FL GDP displacement), KRAS G12V; details: read-out: KRAS G12V GNE IC50
T3 construct: made in house; host or cells: E. coli
T3 sequence (P01116 with tags, fused parts or gaps isoform P01116-2 G12V): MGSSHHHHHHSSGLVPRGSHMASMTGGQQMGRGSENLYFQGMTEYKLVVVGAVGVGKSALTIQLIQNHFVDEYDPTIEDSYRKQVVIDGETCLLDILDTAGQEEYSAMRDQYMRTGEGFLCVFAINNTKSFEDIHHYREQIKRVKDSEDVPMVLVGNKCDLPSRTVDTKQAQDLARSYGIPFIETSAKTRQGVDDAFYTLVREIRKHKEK
Description: as §1, §2, §3

[4] = target: T4, KRAS G12D (amino acids 1-169) (Homo sapiens, UniProt P01116, G12D); experiment: SOS-catalyzed nucleotide exchange assay (Procedure B, BODIPY FL GDP displacement), KRAS G12D; details: read-out: KRAS G12D GNE IC50
T4 construct: made in house; host or cells: E. coli
T4 sequence (P01116 with tags, fused parts or gaps isoform P01116-2 G12D): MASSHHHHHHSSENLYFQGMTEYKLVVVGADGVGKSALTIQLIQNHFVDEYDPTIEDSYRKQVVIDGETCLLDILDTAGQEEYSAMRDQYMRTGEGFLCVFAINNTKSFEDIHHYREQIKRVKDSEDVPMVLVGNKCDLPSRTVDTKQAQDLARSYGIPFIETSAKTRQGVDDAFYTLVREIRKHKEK
Description: as §1, §2, §3

T1 sequence (P01116 with tags, fused parts or gaps isoform P01116-2 G12C): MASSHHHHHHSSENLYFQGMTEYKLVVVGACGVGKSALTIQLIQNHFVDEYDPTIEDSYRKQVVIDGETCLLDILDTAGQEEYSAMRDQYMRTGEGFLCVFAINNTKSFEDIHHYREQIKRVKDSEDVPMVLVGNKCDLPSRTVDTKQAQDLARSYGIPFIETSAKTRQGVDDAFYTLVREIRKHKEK

Row | Structure (SMILES) | IC50 [1] [nM] | IC50 [2] [nM] | IC50 [3] [nM] | IC50 [4] [nM]
1 | CC1Cc2cc3[nH]ncc3c(-c3nccc4c3sc3nc(OC[C@@]56CCCN5C[C@H](F)C6)nc(N5CCOC[C@@](C)(O)C5)c34)c2C1 (stereo partly drawn) [Ex-113, (6S)-4-(2-(((2R,7aS)-2-fluorotetrahydro-1H-pyrrolizin-7a(5H)-yl)methoxy)-8-(6-methyl-1,5,6,7-tetrahydrocyclopenta[f]in-dazol-4-yl)pyrido[4′,3′:4,5]thieno [2,3-d]pyrimidin-4-yl)-6-methy1-1,4-oxazepan-6-ol] | 177 | 150 | 123 | 88.5
2 | C[C@H]1CN2C[C@H](F)C[C@@]2(COc2nc(N3CCOC[C@@](C)(O)C3)c3c(n2)sc2c(-c4c(C5CC5)c(Cl)cc5[nH]ncc45)nccc23)C1 [Ex-226, (6S)-4-(8-(6-chloro-5-cyclopropyl-1H-indazol-4-yl)-2-(((2R,6R,7aR)-2-fluoro-6-methyl-tetrahydro-1H-pyrrolizin-7a(5H)-yl)methoxy)pyrido [4′,3′:4,5]thieno[2,3-d]pyrimidin-4-yl)-6-methyl-1,4-oxaze-pan-6-ol] | 48 | 50.9 | 42.1 | 30.6
3 | C[C@@]1(O)COCCN(c2nc(OC[C@@]34CCCN3C[C@H](F)C4)nc3c(I)c4c(-c5c(C6CC6)c(Cl)cc6[nH]ncc56)nccn4c23)C1 [Ex-303, (S)-4-(9-(6-chloro-5-cyclopropyl-1H-indazol-4-yl)-2-(((2R,7aS)-2-fluorotetrahydro-1H-pyrrolizin-7a(5H)-yl)methoxy)-10-iodopyrazino [1′,2′:1,5]pyrrolo [3,2-d]pyrimidin-4-yl)-6-methyl-1,4-oxazepan-6-ol] | 1140 | 732 | 837 | 380
4 | C[C@@]1(O)COCCN(c2nc(OC[C@@]34CCCN3C[C@H](F)C4)nc3sc4c(-c5c6c(cc7[nH]ncc57)CCC6C#N)nccc4c23)C1 (stereo partly drawn) [Ex-96, 4-(2-(((2R,7aS)-2-fluorotetrahydro-1H-pyrrolizin-7a(5H)-yl)methoxy)-4-((S)-6-hydroxy-6-methyl-1,4-oxazepan-4-yl)pyrido[4′,3′:4,5]thieno [2,3-d]pyrimidin-8-yl)-1,5,6,7-tetrahydrocyclopenta[f]in-dazole-5-carbonitrile] | 193 | 125 | 105 | 43.8
5 | C[C@@H]1C[C@@H]1c1c(Cl)cc2[nH]ncc2c1-c1nccc2c1sc1nc(OC[C@@]34CCCN3C[C@H](F)C4)nc(N3CCOC[C@@](C)(O)C3)c12 (atropisomer, axis not shown; (aS)) [Ex-68, (S)-4-((R)-8-(6-chloro-5-((1S,2R)-2-methylcyclopropyl)-1H-indazol-4-yl)-2-(((2R,7aS)-2-fluorotetrahydro-1H-pyrrolizin-7a(5H)-yl)methoxy)pyrido[4′,3′:4,5]thi-eno[2,3-d]pyrimidin-4-yl)-6-methyl-1,4-oxazepan-6-ol] | 39 | 57.3 | 97.2 | 21.9
6 | C#Cc1c(Cl)cc2[nH]ncc2c1-c1nccc2c1sc1nc(OC[C@@]34CCCN3C[C@H](F)C4)nc(N3CCOC[C@@](C)(O)C3)c12 [Ex-158, (6S)-4-(8-(6-chloro-5-ethynyl-1H-indazol-4-yl)-2-(((2R,7aS)-2-fluorotetrahydro-1H-pyrrolizin-7a(5H)-yl)methoxy)pyrido[4′,3′:4,5]thieno[2,3-d]pyrimidin-4-yl)-6-methyl-1,4-oxazepan-6-ol] | 15.4 | 26.9 | 15.5 | 7.18
7 | Cc1cc2[nH]ncc2c(-c2nccn3c2c(C)c2nc(OC[C@@]45CCCN4C[C@H](F)C5)nc(N4CCOC[C@@](C)(O)C4)c23)c1C(F)(F)F (single isomer, unassigned) [Ex-301] | 107 | 107 | 86.1 | 49.5
8 | COC1c2c(cc3[nH]ncc3c2-c2nccc3c2sc2nc(OC[C@@]45CCCN4C[C@H](F)C5)nc(N4CCOC[C@@](C)(O)C4)c23)CC1(F)F (stereo partly drawn) [Ex-110, (6S)-4-(8-(6,6-difluoro-5-methoxy-1,5,6,7-tetrahydrocyclopenta[f]in-dazol-4-yl)-2-(((2R,7aS)-2-fluorotetrahydro-1H-pyrrolizin-7a(5H)-yl)methoxy)pyrido[4′,3′:4,5]thi-no[2,3-d]pyrimidin-4-yl)-6-methyl-1,4-oxazepan-6-ol] | 57.7 | 47.5 | 43 | 37.7
9 | Cc1cc2[nH]ncc2c(-c2nccn3c2c(F)c2nc(OC[C@@]45CCCN4C[C@H](F)C5)nc(N4CCOC[C@@](C)(O)C4)c23)c1C1CC1 [Ex-306, (S)-4-(9-(5-cyclopropy1-6-methyl-1H-indazol-4-yl)-10-fluoro-2-(((2R,7aS)-2-fluorotetrahydro-1H-pyrrolizin-7a(5H)-yl)methoxy)pyrazino[1′2′:1,5]pyrrolo[3,2-d]pyrimidin-4-yl)-6-methyl-1,4-oxazepan-6-o1] | 10.8 | 16.6 | 18.9 | 4.7

Further lines, results first:

Row | IC50 [1] [nM] | IC50 [2] [nM] | IC50 [3] [nM] | IC50 [4] [nM] | Structure (SMILES)
10 | 55.1 | 167 | 61.3 | 57.6 | Cc1cc2[nH]ncc2c(-c2nccc3c2sc2nc(OC[C@@]45CCCN4C[C@H](F)C5)nc(N4CCOCC5(CC(=O)N5)C4)c23)c1C(F)(F)F (stereo partly drawn) [Ex-194, 9-(2-(((2R,7aS)-2-fluoro-tetrahydro-1H-pyrrolizin-7a(5/7)-yl)methoxy)-8-(6-methyl-5-(trifluorometh-yl)-1H-indazol-4-yl)pyrido [4′,3′:4,5]thieno[2,3-d]pyrimidin-4-yl)-6-oxa-1,9-diazaspiro[3.6]decan-2-one]
11 | 787 | 1480 | 758 | 1320 | Cc1cc2[nH]ncc2c(-c2nccc3c2sc2nc(OC[C@@]45CCCN4C[C@H](F)C5)nc(NC45CC(C4)C5)c23)c1C(F)(F)F [Ex-181, N-(bicyclo[1.1.1]pentan-1-yl)-2-(((2R,7aS)-2-fluoro-tetrahydro-1H-pyrrolizin-7a(5H)-yl)-methoxy)-8-(6-methyl-5-(trifluoromethyl)-1H-indazol-4-yl)pyrido [4′,3′:4,5]thieno[2,3-d] pyrimidin-4-amine]
12 | 1360 | 2250 | 2200 | 3010 | Cc1cc2[nH]ncc2c(-c2nccc3c2sc2nc(OC[C@@]45CCCN4C[C@H](F)C5)nc(N)c23)c1C(F)(F)F [Ex-189, 2-(((2R,7aS)-2-fluoro-tetrahydro-1H-pyrrolizin-7a(5H)-yl)methoxy)-8-(6-methyl-5-(trifluoromethyl)-1H-indazol-4-yl)pyrido [4′,3′:4,5]thieno[2,3-d] pyrimidin-4-amine]
13 | 572 | 690 | 1180 | 393 | C#Cc1n[nH]c2cc(C)c(C(F)(F)F)c(-c3nccc4c3sc3nc(OC[C@@]56CCCN5C[C@H](F)C6)nc(N5CCOC[C@@](C)(O)C5)c34)c12 [Ex-151, (6S)-4-(8-(3-ethynyl-6-methyl-5-(trifluoromethyl)-1H-indazol-4-yl)-2-(((2R,7aS)-2-fluorotetrahydro-1H-pyrrolizin-7a(5H)-yl)methoxy)pyrido[4′,3′:4,5]thieno[2,3-d]pyrimidin-4-yl)-6-methyl-1,4-oxazepan-6-ol]
14 | 2880 | 2990 | 4640 | 2190 | Cc1cc2[nH]ncc2c(-c2nccc3c2sc2nc(OC[C@@]45CCCN4C[C@H](F)C5)nc(N4C[C@H](O)C[C@H]4C)c23)c1C(F)(F)F [Ex-183, (3R,5R)-1-(2-(((2R,7aS)-2-fluorotetrahydro-1H-pyrrolizin-7a(5H)-yl)methoxy)-8-(6-methyl-5-(trifluoromethyl)-1H-indazol-4-yl)pyrido[4′,3′: 4,5]thieno[2,3-d]pyrimi-din-4-yl)-5-methylpyrrol-idin-3-ol]
